The record followed here is patent US9777000B2, “Pyrazole derivative” (MOCHIDA PHARMACEUTICAL CO., LTD., priority 2013, dated 2017).

SMILES strings stand for the structures.

This experiment deals with human PDE10 (Homo sapiens (Human), UniProt Q9Y233). Description: Evaluation of enzyme inhibitory activity: human PDE10 inhibitory effect (IMAP TR-FRET). Format: biochemical. The conditions noted are these: cAMP substrate. As to the method: (Evaluation of Enzyme Inhibitory Activity: Human PDE10 Inhibitory Effect)
Sequence of human PDE10 (Q9Y233 whole entry): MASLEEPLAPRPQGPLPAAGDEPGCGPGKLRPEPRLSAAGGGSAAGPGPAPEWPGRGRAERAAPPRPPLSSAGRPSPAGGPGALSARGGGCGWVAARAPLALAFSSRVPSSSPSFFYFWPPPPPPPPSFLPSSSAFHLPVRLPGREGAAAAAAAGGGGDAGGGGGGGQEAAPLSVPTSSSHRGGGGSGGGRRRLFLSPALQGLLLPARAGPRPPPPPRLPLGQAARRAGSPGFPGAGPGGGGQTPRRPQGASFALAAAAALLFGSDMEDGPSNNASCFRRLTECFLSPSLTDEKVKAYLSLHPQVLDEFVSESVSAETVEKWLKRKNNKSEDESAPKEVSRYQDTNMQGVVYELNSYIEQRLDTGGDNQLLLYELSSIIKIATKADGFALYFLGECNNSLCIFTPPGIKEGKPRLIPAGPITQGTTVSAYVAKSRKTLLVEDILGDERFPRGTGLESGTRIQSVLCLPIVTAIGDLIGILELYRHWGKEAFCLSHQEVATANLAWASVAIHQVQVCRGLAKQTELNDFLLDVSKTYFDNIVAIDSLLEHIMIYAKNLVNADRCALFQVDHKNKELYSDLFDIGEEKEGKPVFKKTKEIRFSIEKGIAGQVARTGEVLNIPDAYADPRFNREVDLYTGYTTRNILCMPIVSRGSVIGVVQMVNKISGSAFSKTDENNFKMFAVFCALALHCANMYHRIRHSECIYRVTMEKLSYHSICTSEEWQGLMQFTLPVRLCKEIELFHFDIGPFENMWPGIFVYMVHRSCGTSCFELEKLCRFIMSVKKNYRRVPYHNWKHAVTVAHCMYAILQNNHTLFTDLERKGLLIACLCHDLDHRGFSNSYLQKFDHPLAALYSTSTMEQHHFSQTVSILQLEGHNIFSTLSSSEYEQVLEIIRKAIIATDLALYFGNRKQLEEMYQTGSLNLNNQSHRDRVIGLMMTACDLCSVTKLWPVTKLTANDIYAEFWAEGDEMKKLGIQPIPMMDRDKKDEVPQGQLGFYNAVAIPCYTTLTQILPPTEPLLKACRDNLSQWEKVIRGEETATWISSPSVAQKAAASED
IMAP TR-FRET Phosphodiersterase Evaluation Assay Kit (Molecular Device) was used for the measurement. Ten μL of a diluted test compound having each concentration and 5 μL of the enzyme PDE10 (BPA Bioscience) that had been diluted to 2 ng/mL with 1×IMAP Reaction Buffer (prepared with 5×included with the kit, 10 mM Tris-HCl, pH=7.2, 10 mM MgCl2, 0.05% NaN3, and 0.1% BSA) containing 0.1% BSA were added to a 384-well plate (Corning). The obtained mixture was then pre-incubated at room temperature for 5 minutes. Thereafter, 5 μL of cAMP substrate solution which was included with the kit and diluted to 400 nM with 1×IMAP Reaction Buffer containing 0.1% BSA, was added to the reaction solution, and the obtained mixture was reacted at room temperature for 60 minutes. Thereafter, 60 μL of an IMAP TR-FRET Binding solution included with the kit was further added to the reaction solution, and the obtained mixture was then left for 3 hours or more. Subsequently, using ARVO SX (PerkinElmer), the fluorescent intensity of Terbium (Emission=490 nm) and TR-FRET (Emission=520 nm) in the reaction solution were measured at an excitation wavelength of 340 nm, so as to calculate the amount of the generated 5′-AMP. The count of a well to which a solvent had been added instead of the test compound was set at 0%, and the count of a well to which the enzyme PDE10 had not been added was set at 100%. Thus, the inhibitory activity of each test compound was calculated.
The PDE10 inhibitory activity of the test compound was indicated with an IC50 value. […] The test compounds are shown in Table 3 (Table 3-1 and Table 3-2).
Regarding `Cn1ncc(-c2nc(C(F)F)cs2)c1C(=O)Nc1cc2nc(-c3ccccc3)nn2cc1F` [Example 3.12, 4-(4-(difluoromethyl)thiazol-2-yl)-N-(6-fluoro-2-phenyl-[1,2,4]triazolo[1,5-a]pyridin-7-yl)-1-methyl-1H-pyrazole-5-carboxamide], the half-inhibitory concentration (IC50) is < 5 nM.

`Cn1ncc(-c2ncccc2C#N)c1C(=O)Nc1cc2nc(-c3ccccc3)nn2cc1F` [Example 3.13, 4-(3-cyanopyridin-2-yl)-N-(6-fluoro-2-phenyl-[1,2,4]triazolo[1,5-a]pyridin-7-yl)-1-methyl-1H-pyrazole-5-carboxamide]: the IC50 is < 5 nM. With `Cc1cnc(C)c(-c2cnn(C)c2C(=O)Nc2cc3nc(-c4ccccc4)nn3cc2F)n1` [Example 3.14, 4-(3,6-dimethyl-pyrazin-2-yl)-N-(6-fluoro-2-phenyl-[1,2,4]triazolo[1,5-a]pyridin-7-yl)-1-methyl-1H-pyrazole-5-carboxamide], the IC50 is < 5 nM. Consider `Cn1ncc(-c2nc(C(F)F)cs2)c1C(=O)Nc1ccn2nc(-c3ccccc3)nc2c1` [Example 3.15, 4-(4-(difluoromethyl)thiazol-2-yl)-1-methyl-N-(2-phenyl-[1,2,4]triazolo[1,5-a]pyridin-7-yl)-1H-pyrazole-5-carboxamide], for which the 50% inhibitory concentration (IC50) was < 5 nM. `COc1ccccc1-c1nc2cc(NC(=O)c3c(-c4nc(C(F)F)cs4)cnn3C)ccn2n1` [Example 3.16, 4-(4-(difluoromethyl)thiazol-2-yl)-N-(2-(2-methoxyphenyl)-[1,2,4]triazolo[1,5-a]pyridin-7-yl)-1-methyl-1H-pyrazole-5-carboxamide]: the half-inhibitory concentration (IC50) is < 5 nM. For `Cn1ncc(-c2nc(C(F)F)cs2)c1C(=O)Nc1ccn2nc(-c3cccc(F)c3)nc2c1` [Example 3.17, 4-(4-(difluoromethyl)thiazol-2-yl)-N-(2-(3-fluorophenyl)-[1,2,4]triazolo[1,5-a]pyridin-7-yl)-1-methyl-1H-pyrazole-5-carboxamide] the value was < 5 nM; for `CCc1csc(-c2cnn(C)c2C(=O)Nc2ccn3nc(-c4ccccc4)nc3c2)n1` [Example 3.18, 4-(4-ethylthiazol-2-yl)-1-methyl-N-(2-phenyl-[1,2,4]triazolo[1,5-a]pyridin-7-yl)-1H-pyrazole-5-carboxamide], < 5 nM.

With `C[C@@H]1CN(c2nc3cc(NC(=O)c4c(-c5nc(C(F)F)cs5)cnn4C)ccn3n2)C[C@H](C)O1` [Example 3.19, 4-(4-(difluoromethyl)thiazol-2-yl)-N-(2-((2S,6R)-2,6-dimethylmorpholino)-[1,2,4]triazolo[1,5-a]pyridin-7-yl)-1-methyl-1H-pyrazole-5-carboxamide], the IC50 was < 5 nM.

`Cc1ncc(C)c(-c2cnn(C)c2C(=O)Nc2cc3nc(-c4ccccc4)nn3cc2F)n1` [Example 3.22, 4-(2,5-dimethylpyrimidin-4-yl)-N-(6-fluoro-2-phenyl-[1,2,4]triazolo[1,5-a]pyridin-7-yl)-1-methyl-1H-pyrazole-5-carboxamide]: the IC50 is < 5 nM. With `Cn1ncc(-c2ccc(C#N)cn2)c1C(=O)Nc1cc2nc(-c3ccccc3)nn2cc1F` [Example 3.23, 4-(5-cyanopyridin-2-yl)-N-(6-fluoro-2-phenyl-[1,2,4]triazolo[1,5-a]pyridin-7-yl)-1-methyl-1H-pyrazole-5-carboxamide] the figure was < 5 nM. `Cc1ccnnc1-c1cnn(C)c1C(=O)Nc1cc2nc(-c3ccccc3)nn2cc1F` [Example 3.24, N-(6-fluoro-2-phenyl-[1,2,4]triazolo[1,5-a]pyridin-7-yl)-1-methyl-4-(4-methylpyridazin-3-yl)-1H-pyrazole-5-carboxamide]: the IC50 is < 5 nM. With `Cc1nccc(-c2cnn(C)c2C(=O)Nc2cc3nc(-c4ccccc4)nn3cc2F)n1` [Example 3.25, N-(6-fluoro-2-phenyl-[1,2,4]triazolo[1,5-a]pyridin-7-yl)-1-methyl-4-(2-methylpyrimidin-4-yl)-1H-pyrazole-5-carboxamide] the figure was < 5 nM; with `COc1nccc(-c2cnn(C)c2C(=O)Nc2cc3nc(-c4ccccc4)nn3cc2F)n1` [Example 3.26, N-(6-fluoro-2-phenyl-[1,2,4]triazolo[1,5-a]pyridin-7-yl)-4-(2-methoxypyrimidin-4-yl)-1-methyl-1H-pyrazole-5-carboxamide], < 5 nM; with `COc1ncc(F)c(-c2cnn(C)c2C(=O)Nc2cc3nc(-c4ccccc4)nn3cc2F)n1` [Example 3.27, 4-(5-fluoro-2-methoxypyrimidin-4-yl)-N-(6-fluoro-2-phenyl-[1,2,4]triazolo[1,5-a]pyridin-7-yl)-1-methyl-1H-pyrazole-5-carboxamide], < 5 nM.

Consider `COc1nccnc1-c1cnn(C)c1C(=O)Nc1cc2nc(-c3ccccc3)nn2cc1F` [Example 3.28, N-(6-fluoro-2-phenyl-[1,2,4]triazolo[1,5-a]pyridin-7-yl)-4-(3-methoxypyrazin-2-yl)-1-methyl-1H-pyrazole-5-carboxamide], for which the IC50 is < 5 nM. As for `Cn1ncc(-c2ncncc2Cl)c1C(=O)Nc1cc2nc(-c3ccccc3)nn2cc1F` [Example 3.29, 4-(5-chloropyrimidin-4-yl)-N-(6-fluoro-2-phenyl-[1,2,4]triazolo[1,5-a]pyridin-7-yl)-1-methyl-1H-pyrazole-5-carboxamide], the half-maximal inhibitory concentration (IC50) was < 5 nM. Regarding `COc1ncnc(-c2cnn(C)c2C(=O)Nc2cc3nc(-c4ccccc4)nn3cc2F)c1C` [Example 3.31, N-(6-fluoro-2-phenyl-[1,2,4]triazolo[1,5-a]pyridin-7-yl)-4-(6-methoxy-5-methylpyrimidin-4-yl)-1-methyl-1H-pyrazole-5-carboxamide], the IC50 is < 5 nM. Regarding `Cc1nccnc1-c1cnn(C)c1C(=O)Nc1cc2nc(-c3ccccc3)nn2cc1F` [Example 3.32, N-(6-fluoro-2-phenyl-[1,2,4]triazolo[1,5-a]pyridin-7-yl)-1-methyl-4-(3-methylpyrazin-2-yl)-1H-pyrazole-5-carboxamide], the IC50 is < 5 nM.

On to `Cc1cncnc1-c1cnn(C)c1C(=O)Nc1cc2nc(-c3ccccc3)nn2cc1F` [Example 3.33, N-(6-fluoro-2-phenyl-[1,2,4]triazolo[1,5-a]pyridin-7-yl)-1-methyl-4-(5-methylpyrimidin-4-yl)-1H-pyrazole-5-carboxamide], for which the IC50 was < 5 nM. Consider `COc1cncnc1-c1cnn(C)c1C(=O)Nc1cc2nc(-c3ccccc3)nn2cc1F` [Example 3.34, N-(6-fluoro-2-phenyl-[1,2,4]triazolo[1,5-a]pyridin-7-yl)-4-(5-methoxypyrimidin-4-yl)-1-methyl-1H-pyrazole-5-carboxamide], for which the half-maximal inhibitory concentration (IC50) was < 5 nM.

For the molecule `Cc1ncnc(-c2cnn(C)c2C(=O)Nc2cc3nc(-c4ccccc4)nn3cc2F)c1C` [Example 3.35, 4-(5,6-dimethylpyrimidin-4-yl)-N-(6-fluoro-2-phenyl-[1,2,4]triazolo[1,5-a]pyridin-7-yl)-1-methyl-1H-pyrazole-5-carboxamide], the IC50 is < 5 nM. For `Cc1ncc(F)c(-c2cnn(C)c2C(=O)Nc2cc3nc(-c4ccccc4)nn3cc2F)n1` [Example 3.36, 4-(5-fluoro-2-methylpyrimidin-4-yl)-N-(6-fluoro-2-phenyl-[1,2,4]triazolo[1,5-a]pyridin-7-yl)-1-methyl-1H-pyrazole-5-carboxamide], the half-inhibitory concentration (IC50) was < 5 nM. With `Cc1nc(C)c(C)c(-c2cnn(C)c2C(=O)Nc2cc3nc(-c4ccccc4)nn3cc2F)n1` [Example 3.37, N-(6-fluoro-2-phenyl-[1,2,4]triazolo[1,5-a]pyridin-7-yl)-1-methyl-4-(2,5,6-trimethylpyrimidin-4-yl)-1H-pyrazole-5-carboxamide], the half-maximal inhibitory concentration (IC50) is < 5 nM. `Cc1ncnc(-c2cnn(C)c2C(=O)Nc2cc3nc(-c4ccccc4)nn3cc2F)c1F` [Example 3.38, N-(6-fluoro-2-phenyl-[1,2,4]triazolo[1,5-a]pyridin-7-yl)-4-(5-fluoro-6-methylpyrimidin-4-yl)-1-methyl-1H-pyrazole-5-carboxamide]: the half-maximal inhibitory concentration (IC50) was < 5 nM.

For the molecule `Cc1cc(-c2cnn(C)c2C(=O)Nc2cc3nc(-c4ccccc4)nn3cc2F)ncn1` [Example 3.39, N-(6-fluoro-2-phenyl-[1,2,4]triazolo[1,5-a]pyridin-7-yl)-1-methyl-4-(6-methylpyrimidin-4-yl)-1H-pyrazole-5-carboxamide], the IC50 was < 5 nM. Consider `Cc1ncc(Cl)c(-c2cnn(C)c2C(=O)Nc2cc3nc(-c4ccccc4)nn3cc2F)n1` [Example 3.41, 4-(5-chloro-2-methylpyrimidin-4-yl)-N-(6-fluoro-2-phenyl-[1,2,4]triazolo[1,5-a]pyridin-7-yl)-1-methyl-1H-pyrazole-5-carboxamide], for which the concentration for half-maximal inhibition (IC50) is < 5 nM. On to `COc1cncc(-c2cnn(C)c2C(=O)Nc2cc3nc(-c4ccccc4)nn3cc2F)n1` [Example 3.42, N-(6-fluoro-2-phenyl-[1,2,4]triazolo[1,5-a]pyridin-7-yl)-4-(6-methoxypyrazin-2-yl)-1-methyl-1H-pyrazole-5-carboxamide], for which the concentration for half-maximal inhibition (IC50) was < 5 nM.

In general, IC50 refers to the point on the concentration scale where inhibition reaches its midpoint. Lower therefore signals inhibition by little substance.
